Series [1] has as its target T1, BTK (Homo sapiens, UniProt Q06187). The experiment in a line: Cellular durability.
Series [2] deals with T1, BTK. The experiment in a line: Dissociation of compound from BTK after guanidine-mediated unfolding. The settings on record: relative to samples without BTK.
A further series concerns the target EGFR (Homo sapiens, UniProt P00533). As to the kind of experiment: Enzymatic IC50 assay. It is filed as biochemical.
The target of another series is T2, ITK (Homo sapiens, UniProt Q08881).
T2 sequence (Q08881 1-620): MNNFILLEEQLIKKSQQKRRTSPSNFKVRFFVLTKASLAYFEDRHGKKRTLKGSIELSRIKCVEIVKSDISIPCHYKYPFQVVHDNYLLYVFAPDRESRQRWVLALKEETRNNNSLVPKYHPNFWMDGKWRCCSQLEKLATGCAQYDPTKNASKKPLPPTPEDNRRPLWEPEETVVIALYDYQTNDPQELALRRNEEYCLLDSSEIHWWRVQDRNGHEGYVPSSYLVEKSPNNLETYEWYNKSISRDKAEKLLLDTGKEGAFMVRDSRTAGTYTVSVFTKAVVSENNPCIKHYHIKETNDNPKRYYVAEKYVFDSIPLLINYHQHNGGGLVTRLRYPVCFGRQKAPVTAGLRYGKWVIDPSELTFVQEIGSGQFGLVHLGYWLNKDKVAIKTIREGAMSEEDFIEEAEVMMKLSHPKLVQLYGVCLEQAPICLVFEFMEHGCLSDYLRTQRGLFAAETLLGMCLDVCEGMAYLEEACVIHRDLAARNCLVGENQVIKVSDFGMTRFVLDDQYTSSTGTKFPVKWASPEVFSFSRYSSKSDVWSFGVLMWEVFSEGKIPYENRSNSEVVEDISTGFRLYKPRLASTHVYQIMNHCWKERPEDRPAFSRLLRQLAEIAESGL
The experiment in a line: Enzymatic IC50 assay. It is filed as biochemical.

For another series, the target named is T3, JAK3 (Homo sapiens, UniProt P52333).
T3 sequence (P52333 1-1124): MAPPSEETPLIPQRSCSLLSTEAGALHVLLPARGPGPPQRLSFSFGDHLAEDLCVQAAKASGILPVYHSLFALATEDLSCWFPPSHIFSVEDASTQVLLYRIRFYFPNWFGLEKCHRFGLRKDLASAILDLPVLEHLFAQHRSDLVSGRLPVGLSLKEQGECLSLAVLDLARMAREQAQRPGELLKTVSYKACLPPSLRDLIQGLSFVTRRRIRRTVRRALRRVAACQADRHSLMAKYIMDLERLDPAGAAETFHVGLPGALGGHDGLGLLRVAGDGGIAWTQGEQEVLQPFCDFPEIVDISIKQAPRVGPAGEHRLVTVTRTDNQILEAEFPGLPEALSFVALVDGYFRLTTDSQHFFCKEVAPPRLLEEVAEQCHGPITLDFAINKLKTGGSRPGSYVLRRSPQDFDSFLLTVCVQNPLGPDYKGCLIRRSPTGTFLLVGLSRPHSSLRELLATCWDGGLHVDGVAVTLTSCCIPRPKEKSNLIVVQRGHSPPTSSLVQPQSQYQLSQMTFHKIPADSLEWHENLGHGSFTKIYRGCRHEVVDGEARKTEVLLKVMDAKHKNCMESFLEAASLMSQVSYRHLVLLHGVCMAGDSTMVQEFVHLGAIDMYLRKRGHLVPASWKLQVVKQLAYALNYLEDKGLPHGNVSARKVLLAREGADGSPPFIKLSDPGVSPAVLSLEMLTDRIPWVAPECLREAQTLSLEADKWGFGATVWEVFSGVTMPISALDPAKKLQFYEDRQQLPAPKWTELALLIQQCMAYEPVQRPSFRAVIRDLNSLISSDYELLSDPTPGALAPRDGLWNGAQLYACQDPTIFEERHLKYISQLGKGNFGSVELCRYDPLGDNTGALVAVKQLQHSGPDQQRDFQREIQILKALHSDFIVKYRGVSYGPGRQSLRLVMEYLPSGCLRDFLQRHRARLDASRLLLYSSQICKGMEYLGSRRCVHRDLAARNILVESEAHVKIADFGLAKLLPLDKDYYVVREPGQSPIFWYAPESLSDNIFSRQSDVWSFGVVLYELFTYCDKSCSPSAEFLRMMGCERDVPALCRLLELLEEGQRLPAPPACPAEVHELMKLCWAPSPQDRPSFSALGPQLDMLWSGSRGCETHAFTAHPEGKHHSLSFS
As to the kind of experiment: Enzymatic IC50 assay. The format is biochemical.

Another series is described as follows: Aqueous solubility. It is filed as physicochemical.
A short description of another series: Oral bioavailability. The settings on record: in vivo.
Series [3] concerns the target T1, BTK. As to the kind of experiment: Biochemical residence time using fluorescence competition. The format is binding. To be noted: for residence time: read-out: BTK residence time τ.
The target of series [4] is T1, BTK. As to the kind of experiment: BTK cell occupancy using Alphascreen. It is filed as cell-based. On the technique in general: In Alpha technology, singlet oxygen from a donor bead excites a nearby acceptor bead.

Some results are limits rather than exact numbers.

T1 sequence (Q06187 whole entry): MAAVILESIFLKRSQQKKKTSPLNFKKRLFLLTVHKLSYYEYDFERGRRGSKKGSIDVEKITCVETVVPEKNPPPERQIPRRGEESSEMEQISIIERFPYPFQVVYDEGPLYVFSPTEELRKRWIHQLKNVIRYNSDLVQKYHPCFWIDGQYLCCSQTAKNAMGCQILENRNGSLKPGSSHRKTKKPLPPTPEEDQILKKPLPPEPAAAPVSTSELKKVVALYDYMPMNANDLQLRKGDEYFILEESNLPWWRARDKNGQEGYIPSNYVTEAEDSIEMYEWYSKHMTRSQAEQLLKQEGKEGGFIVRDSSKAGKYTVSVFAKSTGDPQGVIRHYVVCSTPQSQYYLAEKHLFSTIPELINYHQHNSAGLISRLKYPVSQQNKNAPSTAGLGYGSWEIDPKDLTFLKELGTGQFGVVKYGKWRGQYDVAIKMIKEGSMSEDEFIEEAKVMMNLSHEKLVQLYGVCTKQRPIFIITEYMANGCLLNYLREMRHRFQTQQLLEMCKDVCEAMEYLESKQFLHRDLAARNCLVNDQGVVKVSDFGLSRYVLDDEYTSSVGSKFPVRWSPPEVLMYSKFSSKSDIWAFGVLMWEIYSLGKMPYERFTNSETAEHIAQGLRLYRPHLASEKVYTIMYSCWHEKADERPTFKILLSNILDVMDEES
Sequence of EGFR (P00533 25-1210, species assumed): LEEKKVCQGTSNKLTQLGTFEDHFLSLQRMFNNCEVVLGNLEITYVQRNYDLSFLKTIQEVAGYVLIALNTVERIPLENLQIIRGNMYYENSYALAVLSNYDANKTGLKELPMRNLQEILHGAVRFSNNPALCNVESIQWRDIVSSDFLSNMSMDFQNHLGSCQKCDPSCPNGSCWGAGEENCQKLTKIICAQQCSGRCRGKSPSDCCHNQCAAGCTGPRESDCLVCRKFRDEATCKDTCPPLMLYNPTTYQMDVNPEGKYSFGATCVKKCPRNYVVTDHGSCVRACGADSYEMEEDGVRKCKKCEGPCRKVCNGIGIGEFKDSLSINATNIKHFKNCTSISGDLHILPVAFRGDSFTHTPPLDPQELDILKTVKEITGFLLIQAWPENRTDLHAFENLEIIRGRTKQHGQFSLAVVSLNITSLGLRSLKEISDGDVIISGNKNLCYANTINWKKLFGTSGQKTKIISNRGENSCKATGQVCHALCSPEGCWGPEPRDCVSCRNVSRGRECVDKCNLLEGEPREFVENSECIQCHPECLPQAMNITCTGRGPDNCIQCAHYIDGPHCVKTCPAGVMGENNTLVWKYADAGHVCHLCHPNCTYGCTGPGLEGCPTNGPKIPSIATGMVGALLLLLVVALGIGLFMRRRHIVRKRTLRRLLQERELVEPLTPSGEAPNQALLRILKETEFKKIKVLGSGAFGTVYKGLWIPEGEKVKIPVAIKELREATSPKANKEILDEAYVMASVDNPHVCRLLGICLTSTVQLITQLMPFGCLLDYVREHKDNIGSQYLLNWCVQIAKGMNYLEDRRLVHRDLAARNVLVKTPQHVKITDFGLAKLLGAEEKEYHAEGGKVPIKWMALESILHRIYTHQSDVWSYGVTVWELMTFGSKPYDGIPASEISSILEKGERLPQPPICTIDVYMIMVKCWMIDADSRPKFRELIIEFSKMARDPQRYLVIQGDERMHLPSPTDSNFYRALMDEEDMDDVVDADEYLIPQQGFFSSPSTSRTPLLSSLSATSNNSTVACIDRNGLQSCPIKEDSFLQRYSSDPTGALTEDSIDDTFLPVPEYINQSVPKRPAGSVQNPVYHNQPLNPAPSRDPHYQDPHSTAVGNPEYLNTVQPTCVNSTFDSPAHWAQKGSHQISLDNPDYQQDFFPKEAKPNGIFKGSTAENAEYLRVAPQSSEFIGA

Consider `CC=C(C#N)C(=O)N1CCC[C@@H](n2nc(-c3ccc(Oc4ccccc4)cc3)c3c(N)ncnc32)C1` [Compound 1], for which the “BTK occupancy 20 hrs post-washout” value at BTK [1] (Ramos B cells, 1 μM, 1 hr, PP-BODIPY) is “negligible”.
As for `CC(C)(C)C=C(C#N)C(=O)N1CCC[C@@H](n2nc(-c3ccc(Oc4ccccc4)cc3)c3c(N)ncnc32)C1` [Compound 3, (R)-2-(3-(4-Amino-3-(4-phenoxyphenyl)-1H-pyrazolo[3,4-d]pyrimidin-1-yl)piperidine-1-carbonyl)-4,4-dimethylpent-2-enenitrile], at BTK [2], the “Recovery of compound after guanidine-mediated denaturation of BTK” value was 88 ± 10%. For the same compound, the “Selectivity for BTK over EGFR” value on EGFR is listed as > 1,000 fold. In addition, at ITK, the “Selectivity for BTK over ITK” value turned out to be 60 fold. On JAK3, the “Selectivity for BTK over JAK3” value is recorded as > 1,000 fold. Moreover, the Solubility result in “Aqueous solubility” was “low solubility”. Besides, in “Oral bioavailability”, the Oral bioavailability entry is reported as “poor oral bioavailability”. In addition, the receptor occupancy at 1 µM at BTK [1] (Ramos, read-out: BTK occupancy 20 hrs post-washout) stood at 55%.
As to `CC(C)(C=C(C#N)C(=O)N1CCC[C@H]1Cn1nc(-c2ccc(Oc3ccccc3)cc2F)c2c(N)ncnc21)N1CCOCC1` [Compound 8], at BTK [3], the residence time is 4980 ± 840 min. The 50% inhibitory concentration (IC50) (in general, the midpoint of a concentration-inhibition curve) on BTK [4] lay in the range of 5 to 27 nM.
As for `C=CC(=O)N1CCC[C@@H]1Cn1nc(-c2ccc(Oc3ccccc3)cc2F)c2c(N)ncnc21` [PP-ir], on BTK [3], the residence time was greater than 12000 min. Also, the “BTK residence time τ” value on BTK [3] (room temperature) is “no evident dissociation”. Moreover, at BTK [4], the half-maximal inhibitory concentration (IC50) lay in the range of 5 to 27 nM.
